Measurements published in paper PMC8624998, “Synthesis and Antiproliferative Evaluation of 3-Chloroazetidin-2-ones with Antimitotic Activity: Heterocyclic Bridged Analogues of Combretastatin A-4” (Pharmaceuticals, 2021).
Read-outs that look alike come from different tables or passages of the source. Marks after values point to notes of the source that are not given here.

Legend:
MCF-7 cells = assay: Cell viability assay (MTT/AlamarBlue), antiproliferative activity; assay type: cell-based, human; conditions: for IC50: Homo sapiens, MCF7, 72 h, read-out: IC50 (MCF-7, 72 h)
Excerpt: […]. The introduction of the halogen substituent at C-3 was examined in an effort to investigate the effect on the activity of this substituent, and subsequently optimising the cytotoxic effects against MCF-7 human breast cancer cells.
The human breast carcinoma cell line MCF-7 was purchased from the European Collection of Animal Cell Cultures (ECACC). Triple negative breast cancer Hs578T cells and its invasive variant Hs578Ts(i)8 were a kind gift from Dr. Susan McDonnell, School of Chemical and Bioprocess Engineering, University College Dublin. U266 cells were a gift from Dr. Tony McElligott, School of Medicine, St James’s Hospital, Trinity College Dublin. HT-29 cells were purchased from the European Collection of Cell Cultures (originating from a human adenocarcinoma of the colon). The human breast carcinoma cell line MDA-MB-231 and the HL-60 cells derived from a patient with acute myeloid leukaemia were both obtained from ECACC (Salisbury, UK). The SW-480 cells were a kind gift from Dr. Brian Flood, School of Biochemistry and Immunology, Trinity College Dublin. HEK-293T (normal epithelial embryonic kidney cells) were cultured in Dulbecco’s Modified Eagle’s Medium (DMEM) with GlutaMAXTM-I in the absence of non-essential amino acids. Human breast cancer MCF-7 cells and multiple myeloma U266 cells were cultured in Minimum Essential Media (MEM) with GlutaMAX™-I, supplemented with 1% (v/v) non-essential amino acids, 10% 2(v/v) foetal bovine serum (FBS) and 1% (v/v) penicillin/streptomycin 5000 U/mL. MDA-MB-231 cells were maintained in DMEM supplemented with 10% (v/v) foetal bovine serum, 2 mM L-glutamine and 100 μg/mL penicillin/streptomycin (complete medium). Colon cancer HT-29 and SW-480 and triple negative breast cancer Hs578T and its invasive variant Hs578T8i were cultured in DMEM with GlutaMAX™-I, with the same supplement in the absence of non-essential amino acids. Leukaemia HL-60 cancer cells were cultured in Roswell Park Memorial Institute Media (RPMI-1640) with GlutaMAX™-I, supplemented with 10% FCS media, and 100 μg/mL penicillin/streptomycin as above. Cell numbers were monitored using a haemocytometer. Cell culture flasks were incubated in a humidified incubator (5% CO2/95% air) at 37 °C. All cell lines were sub-cultured three times per week with trypsinisation using TrypLE Express (1X) required for adherent cell lines.
. All stock solutions and serial dilution in ethanol/DMSO were stored at -20 °C. All cells were seeded at a density of 2.5 × 10^4 cells/mL in a 96-well plate (200 μL per well). The cells were incubated in a […] atmosphere at 37 °C for 24 h, then treated with test compound (2 μL of stock solutions per 200-microlitre well) in ethanol to obtain a concentration range of 1 nM–200 μM for the study. The plates were then re-incubated for a further 72 h. Control wells contained an equivalent volume of the vehicle ethanol or DMSO (1% v/v). MTT cell viability assay: The culture medium was removed, and the cells were washed with phosphate buffered saline (PBS, […]). MTT (dissolved in PBS, […]) was added to obtain a final concentration of MTT (1 mg/mL). Cells were incubated at 37 °C for 3 h in the dark. Solubilisation was commenced by the addition of DMSO ([…]) and the cells were maintained at 20 °C in the dark for 20 min before reading the absorbance to ensure complete colour diffusion. The absorbance value of control cells (no added compound) was set to 100% cell viability and absorbance versus cell density per well was determined to assess cell viability using Graph-Pad Prism software. AlamarBlue cell viability assay: Cells were seeded in 96-well plates (e.g., MCF-7, 5 × 10^3 cells/well) and (HT-29 cells, 1 × 10^3 cells/well) and (HL-60 cells, 1 × 10^4 cells/well) with a total volume per well of 200 µL. After 24 h, cells were treated in triplicate with serial dilutions of CA-4 or β-lactam analogues (0.001–100 μM), medium alone or vehicle (1% ethanol (v/v)). […]

| SMILES | IC50 (MCF-7 cells; MCF-7, 72 h) [µM] | melting point [°C] | inhibition of cell viability at a concentration of 10 μM (MCF-7 cells; MCF-7, 72 h) | IC50 (MCF-7 cells) [µM] |
| --- | --- | --- | --- | --- |
| COc1cc(C2N(c3ccc(SC)cc3)C(=O)C2(Cl)Cl)cc(OC)c1OC (centres unmarked) [Compound 13c, 3,3-Dichloro-1-(4-(methylthio)phenyl)-4-(3,4,5-trimethoxyphenyl) azetidin-2-one] | – | 117 to 119 | 20% (10 μM)^c | – |
| COc1cc(N2C(=O)C(Cl)(Cl)C2c2ccc([N+](=O)[O-])cc2)cc(OC)c1OC (centres unmarked) [Compound 11d, 3,3-Dichloro-1-(3,4,5-trimethoxyphenyl)-4-(4-nitrophenyl)azetidin-2-one] | 61.6 ± 7.61 | 116 to 118 | – | – |
| COc1ccc(N2C(=O)C(Cl)C2c2cc(OC)c(OC)c(OC)c2)cc1 (centres unmarked) [Compound 12a, 3-Chloro-1-(4-methoxyphenyl)-4-(3,4,5-trimethoxyphenyl)azetidin-2-one] | 14.8 ± 1.58 | 101 to 102 | – | – |
| CCOc1ccc(N2C(=O)C(Cl)C2c2cc(OC)c(OC)c(OC)c2)cc1 (centres unmarked) [Compound 12b, 3-Chloro-1-(4-ethoxyphenyl)-4-(3,4,5-trimethoxyphenyl)azetidin-2-one] | – | 113 to 115 | 25% (10 μM) ^c | – |
| COc1cc(N2C(=O)C(Cl)(Cl)C2c2ccc(Cl)cc2)cc(OC)c1OC (centres unmarked) [Compound 11b, 3,3-Dichloro-4-(4-chlorophenyl)-1-(3,4,5-trimethoxyphenyl)azetidin-2-one] | 12.8 ± 1.08 | 150 to 153 | – | – |
| COc1cc(C2C(Cl)C(=O)N2c2ccc(SC)cc2)cc(OC)c1OC (centres unmarked) [Compound 12c, 3-Chloro-1-(4-(methylthio)phenyl)-4-(3,4,5-trimethoxyphenyl) azetidin-2-one] | – | 101 to 103 | 10% (10 μM) ^c | – |
| COc1cc(N2C(=O)C(Cl)C2c2ccc(Oc3ccccc3)cc2)cc(OC)c1OC (centres unmarked) [Compound 10g, 3-Chloro-1-(3,4,5-trimethoxyphenyl)-4-(4-phenoxyphenyl)azetidin-2-one] | 64.1 ± 7.3 | – | – | – |
| COc1cc(N2C(=O)C(Cl)C2c2ccc(OCc3ccccc3)cc2)cc(OC)c1OC (centres unmarked) [Compound 10h, 4-(4-Benzyloxyphenyl)-3-chloro-1-(3,4,5-trimethoxyphenyl)azetidin-2-one] | 59.9 ± 6.99 | 96 to 98 | – | – |
| COc1ccc(N2C(=O)C(Cl)(Cl)C2c2cc(OC)c(OC)c(OC)c2)cc1 (centres unmarked) [Compound 13a, 3,3-Dichloro-4-(3,4,5-trimethoxyphenyl)-1-(4-methoxyphenyl)azetidin-2-one] | 45.9 ± 6.73 | 64 to 66 | – | – |
| COc1ccc(C2N(c3cc(OC)c(OC)c(OC)c3)C(=O)C2(Cl)Cl)cc1OP(=O)(O)O (centres unmarked) [Compound 18, 5-(3,3-Dichloro-1-(3,4,5-trimethoxyphenyl)-4-oxoazetidin-2-yl)-2-methoxyphenyl dihydrogen phosphate] | – | – | – | 0.077 ± 0.01 |
| COc1cc(N2C(=O)C(Cl)(Cl)C2c2ccccc2)cc(OC)c1OC (centres unmarked) [Compound 11a, 3,3-Dichloro-1-(3,4,5-trimethoxyphenyl)-4-phenylazetidin-2-one] | 37.2 ± 3.21 | 80 to 81 | – | – |
| COc1cc(N2C(=O)C(Cl)C2c2ccccc2)cc(OC)c1OC (centres unmarked) [Compound 10a, 3-Chloro-1-(3,4,5-trimethoxyphenyl)-4-phenylazetidin-2-one] | 23.4 ± 2.8 | – | – | – |
| COc1cc(N2C(=O)C(Cl)(Cl)C2c2ccc(OCc3ccccc3)cc2)cc(OC)c1OC (centres unmarked) [Compound 11h, 4-(4-Benzyloxyphenyl)-3,3-dichloro-1-(3,4,5-trimethoxyphenyl) azetidin-2-one] | 36.3 ± 3.68 | – | – | – |

Further lines, with some results ahead:

| IC50 (MCF-7 cells; MCF-7, 72 h) [µM] | melting point [°C] | SMILES | inhibition of cell viability at a concentration of 10 μM (MCF-7 cells; MCF-7, 72 h) | IC50 (MCF-7 cells) [µM] |
| --- | --- | --- | --- | --- |
| 0.506 ± 0.11 | – | COc1cc(N2C(=O)C(Cl)C2c2ccc(Br)cc2)cc(OC)c1OC (centres unmarked) [Compound 10c, 4-(4-Bromophenyl)-3-chloro-1-(3,4,5-trimethoxyphenyl)azetidin-2-one] | – | – |
| 0.045 ± 0.01 | 129 to 130 | CCOc1ccc(C2C(Cl)C(=O)N2c2cc(OC)cc(OC)c2)cc1 (centres unmarked) [Compound 14b, 3-Chloro-1-(3,5-dimethoxyphenyl)-4-(4-ethoxyphenyl)azetidin-2-one] | – | – |
| 0.613 ± 0.04 | – | COc1cc(N2C(=O)C(Br)C2c2ccc(SC)cc2)cc(OC)c1OC (centres unmarked) [Compound 16c, 3-Bromo-4-(4-(methylthio)phenyl)-1-(3,4,5-trimethoxyphenyl)azetidin-2-one] | – | – |
| 0.472 ± 0.2 | – | COc1ccc(C2C(Br)C(=O)N2c2cc(OC)c(OC)c(OC)c2)cc1Cl (centres unmarked) [Compound 16g, 3-Bromo-4-(3-chloro-4-methoxyphenyl)-1-(3,4,5-trimethoxyphenyl) azetidin-2-one] | – | – |
| 0.39 ± 0.03 | – | COc1ccc(C2C(Br)C(=O)N2c2cc(OC)c(OC)c(OC)c2)cc1F (centres unmarked) [Compound 16f, 3-Bromo-4-(3-fluoro-4-methoxyphenyl)-1-(3,4,5-trimethoxyphenyl) azetidin-2-one] | – | – |
| 7.99 ± 0.7 | 146 to 148 | COc1cc(N2C(=O)C(Cl)(Cl)C2c2cccc3ccccc23)cc(OC)c1OC (centres unmarked) [Compound 11j, 3,3-Dichloro-1-(3,4,5-trimethoxyphenyl)-4-(naphthalen-1-yl)azetidin-2-one] | – | – |
| 0.273 ± 0.01 | – | CCOc1ccc(C2N(c3cc(OC)cc(OC)c3)C(=O)C2(Cl)Cl)cc1 (centres unmarked) [Compound 15b, 3,3-Dichloro-1-(3,5-dimethoxyphenyl)-4-(4-ethoxyphenyl)azetidin-2-one] | – | – |
| 4.37 ± 0.61 | – | COc1cc(N2C(=O)C(Cl)C2c2ccc([N+](=O)[O-])cc2)cc(OC)c1OC (centres unmarked) [Compound 10d, 3-Chloro-1-(3,4,5-trimethoxyphenyl)-4-(4-nitrophenyl)azetidin-2-one] | – | – |
| 0.353 ± 0.04 | 117 to 119 | COc1ccc(C2N(c3cc(OC)c(OC)c(OC)c3)C(=O)C2(Cl)Cl)cc1[N+](=O)[O-] (centres unmarked) [Compound 11m, 3,3-Dichloro-4-(4-methoxy-3-nitrophenyl)-1-(3,4,5-trimethoxyphenyl) azetidin-2-one] | – | – |
| 0.525 ± 0.03 | – | COc1ccc(C2C(Br)C(=O)N2c2cc(OC)c(OC)c(OC)c2)cc1C (centres unmarked) [Compound 16e, 3-Bromo-4-(4-methoxy-3-methylphenyl)-1-(3,4,5-trimethoxyphenyl) azetidin-2-one] | – | – |
| 0.62 ± 0.04 | – | COc1ccc(C2C(Br)C(=O)N2c2cc(OC)c(OC)c(OC)c2)cc1Br (centres unmarked) [Compound 16h, 3-Bromo-4-(3-bromo-4-methoxyphenyl)-1-(3,4,5-trimethoxyphenyl) azetidin-2-one] | – | – |
| 3.09 ± 0.41 | 93 to 95 | COc1ccc(C2C(Cl)C(=O)N2c2cc(OC)c(OC)c(OC)c2)cc1[N+](=O)[O-] (centres unmarked) [Compound 10m, 3-Chloro-4-(4-methoxy-3-nitrophenyl)-1-(3,4,5-trimethoxyphenyl) azetidin-2-one] | – | – |
| 0.317 ± 0.04 | – | COc1ccc([C@@H]2[C@H](Cl)C(=O)N2c2cc(OC)c(OC)c(OC)c2)cc1 (relative stereo) [Compound 10e cis, Cis-3-chloro-1-(3,4,5-trimethoxyphenyl)-4-(4-methoxyphenyl) azetidin-2-one] | – | – |
| 1.3 ± 0.17 | – | COc1cc(N2C(=O)C(Cl)C2c2ccc(Cl)cc2)cc(OC)c1OC (centres unmarked) [Compound 10b, 3-Chloro-4-(4-chlorophenyl)-1-(3,4,5-trimethoxyphenyl)azetidin-2-one] | – | – |
| 6.61 ± 2 | – | COc1ccc(C2N(c3cc(OC)cc(OC)c3)C(=O)C2(Cl)Cl)cc1 (centres unmarked) [Compound 15a, 3,3-Dichloro-1-(3,5-dimethoxyphenyl)-4-(4-methoxyphenyl)azetidin-2-one] | – | – |
